Reference: patent US11000033B2, “Ketone or oxime compound, and herbicide” (NISSAN CHEMICAL CORPORATION, priority 2014, dated 2021)

Key:
Assay type in all cases: in vivo
Cyperus difformis = assay: Test Example 3: herbicidal effect by foliage application, Wagner pot (symbol E); details: application herbicide amount 320 g/ha
Procedure, shortened: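 Plants sown in submerged alluvial soil (water depth 0.1–0.5 cm) in a 25–30 °C greenhouse and grown 14 days. An emulsion of the compound diluted in water to a set herbicide amount was sprayed uniformly on foliage. Effect on each plant scored 3 weeks after application.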

Veronica persica = assay: Test Example 5: herbicidal effect by foliage application, plastic box (symbol R); details: 320 g/ha, 3 weeks after application
Procedure, shortened: (§1)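 After sowing into sterilized diluvial soil and growing two weeks under glass at 25° C. to 30° C., seedlings receive a uniform foliar spray of diluted emulsion. Damage is judged visually three weeks on.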

Galium spurium = assay: Test Example 5: herbicidal effect by foliage application, plastic box (symbol Q); details: 320 g/ha, 3 weeks after application
Procedure, shortened: as §1

rice = assay: Test Example 4: effect on crop by soil treatment (symbol b); details: application herbicide amount 320 g/ha
Procedure, shortened: (§2)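 Crop seeds, among them rice, wheat, beet and rapeseed, were sown in sterilized diluvial soil and covered with about 1.5 cm of soil. Boxes were kept in a greenhouse at 25° C. to 30° C. for plant growth.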

beet [1] = assay: Test Example 5: effect on crop by foliage application, plastic box (symbol f); details: 320 g/ha, 3 weeks after application
Procedure, shortened: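 Crop and weed seeds sown in spots in sterilized diluvial soil in plastic boxes and covered with about 1.5 cm soil. Plants raised in a greenhouse at 25° C. to 30° C. for foliar application.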

Alopecurus myosuroides = assay: Test Example 5: herbicidal effect by foliage application, plastic box (symbol J); details: 320 g/ha, 3 weeks after application
Procedure, shortened: as §1

wheat = assay: Test Example 4: effect on crop by soil treatment (symbol e); details: application herbicide amount 320 g/ha
Procedure, shortened: as §2

Apera spica-venti = assay: Test Example 5: herbicidal effect by foliage application, plastic box (symbol L); details: 320 g/ha, 3 weeks after application
Procedure, shortened: as §1

[2] = test system: Echinochloa oryzacola Vasing.; assay: Test Example 2: herbicidal activity, application during weed generation in submerged conditions (symbol A); details: Table 23; application herbicide amount 320 g/ha; grade 0-5 by criteria of Test Example 1
Procedure, shortened: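 Seeds sown in flooded alluvial soil (4 cm water) were grown in a 25-30° C greenhouse. At the one- to two-leaf stage, diluted emulsion of compound was applied to the water surface at a predetermined rate. Effect was scored 3 weeks later.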

Digitaria ciliaris [3] = assay: Test Example 5: herbicidal effect by foliage application, plastic box (symbol F); details: 320 g/ha, 3 weeks after application
Procedure, shortened: as §1

[4] = test system: Echinochloa crus-galli var. crus-galli; assay: Test Example 4: herbicidal effect by soil treatment (symbol H); details: application herbicide amount 320 g/ha
Procedure, shortened: (§3)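 Seeds were sown in sterilized diluvial soil, covered with about 1.5 cm of soil, and the soil surface was sprayed with a water-diluted emulsion of the compound at a predetermined rate. Plants grew in a greenhouse at 25° C. to 30° C.; effects were scored visually 3 weeks after application.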

Digitaria ciliaris [5] = assay: Test Example 4: herbicidal effect by soil treatment (symbol F); details: application herbicide amount 320 g/ha
Procedure, shortened: as §3

Setaria viridis = assay: Test Example 5: herbicidal effect by foliage application, plastic box (symbol G); details: 320 g/ha, 3 weeks after application
Procedure, shortened: as §1

Abutilon theophrasti = assay: Test Example 4: herbicidal effect by soil treatment (symbol M); details: application herbicide amount 320 g/ha
Procedure, shortened: as §3

[6] = test system: directly sowed rice plant; assay: Test Example 3: effect on crop by foliage application, Wagner pot (symbol b); details: application herbicide amount 320 g/ha
Procedure, shortened: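 Greenhouse culture at 25–30 °C of seeded rice, Cyperus difformis, Leptochloa chinensis and Echinochloa crus-galli var. crus-galli, in alluvial soil held under 0.1–0.5 cm of water in a Wagner pot.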

corn = assay: Test Example 4: effect on crop by soil treatment (symbol c); details: application herbicide amount 320 g/ha
Procedure, shortened: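 Steps: fill box with sterilized diluvial soil; sow seed spot-like; cover with ~1.5 cm soil; grow in greenhouse (25° C. to 30° C.).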

Lolium multiflorum Lam. = assay: Test Example 4: herbicidal effect by soil treatment (symbol K); details: application herbicide amount 320 g/ha
Procedure, shortened: as §3

beet [7] = assay: Test Example 4: effect on crop by soil treatment (symbol f); details: application herbicide amount 320 g/ha
Procedure, shortened: as §2

Compound | herbicidal effect on E, grade 0-5 (Cyperus difformis) | R: Veronica persica, herbicidal effect grade (Veronica persica) | b (directly sowed rice plant) effect on crop grade (rice) | f: beet, effect on crop grade (beet [1]) | J: Alopecurus myosuroides, herbicidal effect grade (Alopecurus myosuroides) | e (wheat) effect on crop grade (wheat) | L: Apera spica-venti, herbicidal effect grade (Apera spica-venti) | Herbicidal effect grade, A: Echinochloa oryzacola Vasing. [2] | F: Digitaria ciliaris, herbicidal effect grade (Digitaria ciliaris [3]) | H (Echinochloa crus-galli var. crus-galli) herbicidal effect grade [4] | F (Digitaria ciliaris) herbicidal effect grade (Digitaria ciliaris [5]) | G: Setaria viridis, herbicidal effect grade (Setaria viridis) | M (Abutilon theophrasti) herbicidal effect grade (Abutilon theophrasti) | effect on crop b (directly sowed rice plant), grade 0-5 [6] | c (corn) effect on crop grade (corn) | K (Lolium multiflorum Lam.) herbicidal effect grade (Lolium multiflorum Lam.) | further results
CON=CC(C)(C)C1CC(O)=C(c2c(C)cc(C)cc2C)C1=O (stereo not shown) [1-030] | 3 (Herbicidal ratio of 40% or higher and lower than 70%) | 0 (Herbicidal ratio of 5% or lower (almost no effect)) | 4 (Herbicidal ratio of 70% or higher and lower than 90%) | 0 (Herbicidal ratio of 5% or lower (almost no effect)) | 4 (Herbicidal ratio of 70% or higher and lower than 90%) | 0 (Herbicidal ratio of 5% or lower (almost no effect)) | 4 (Herbicidal ratio of 70% or higher and lower than 90%) | 2 (Herbicidal ratio of 20% or higher and lower than 40%) | 4 (Herbicidal ratio of 70% or higher and lower than 90%) | 2 (Herbicidal ratio of 20% or higher and lower than 40%) | 3 (Herbicidal ratio of 40% or higher and lower than 70%) | 5 (Herbicidal ratio of 90% or more (almost completely withered)) | 0 (Herbicidal ratio of 5% or lower (almost no effect)) | 5 (Herbicidal ratio of 90% or more (almost completely withered)) | 0 (Herbicidal ratio of 5% or lower (almost no effect)) | 5 (Herbicidal ratio of 90% or more (almost completely withered)) | Q: Galium spurium, herbicidal effect grade (Galium spurium): 0 (Herbicidal ratio of 5% or lower (almost no effect))
CON=C(CC1CC(O)=C(c2c(C)cc(Br)cc2C)C1=O)C1CC1 (stereo not shown) [9-002] | – | 1 (Herbicidal ratio of 5% or higher and lower than 20%) | – | 0 (Herbicidal ratio of 5% or lower (almost no effect)) | 5 (Herbicidal ratio of 90% or more (almost completely withered)) | – | 5 (Herbicidal ratio of 90% or more (almost completely withered)) | 5 (Herbicidal ratio of 90% or more (almost completely withered)) | 5 (Herbicidal ratio of 90% or more (almost completely withered)) | – | – | 5 (Herbicidal ratio of 90% or more (almost completely withered)) | – | – | – | – | E herbicidal effect grade (Cyperus difformis; Table 24): 5 (Herbicidal ratio of 90% or more (almost completely withered)); Effect on crop grade, b: directly sowed rice plant (rice): 5 (Herbicidal ratio of 90% or more (almost completely withered)); Effect on crop grade, f: beet (beet [7]): 0 (Herbicidal ratio of 5% or lower (almost no effect)); Effect on crop grade, e: wheat (wheat): 0 (Herbicidal ratio of 5% or lower (almost no effect)); Herbicidal effect grade, H: Echinochloa crus-galli var. crus-galli [4]: 5 (Herbicidal ratio of 90% or more (almost completely withered)); Herbicidal effect grade, F: Digitaria ciliaris (Digitaria ciliaris [5]): 5 (Herbicidal ratio of 90% or more (almost completely withered)); Herbicidal effect grade, M: Abutilon theophrasti (Abutilon theophrasti): 0 (Herbicidal ratio of 5% or lower (almost no effect)); b (directly sowed rice plant) effect on crop grade ([6]; Table 24): 5 (Herbicidal ratio of 90% or more (almost completely withered)); Effect on crop grade, c: corn (corn): 3 (Herbicidal ratio of 40% or higher and lower than 70%); Herbicidal effect grade, K: Lolium multiflorum Lam. (Lolium multiflorum Lam.): 5 (Herbicidal ratio of 90% or more (almost completely withered))
CON=C(C)CC1CC(OC(=O)COc2cccc(OC)c2)=C(c2c(C)cc(C)cc2C)C1=O (stereo not shown) [1-068] | 5 (Herbicidal ratio of 90% or more (almost completely withered)) | 3 (Herbicidal ratio of 40% or higher and lower than 70%) | 5 (Herbicidal ratio of 90% or more (almost completely withered)) | 3 (Herbicidal ratio of 40% or higher and lower than 70%) | 5 (Herbicidal ratio of 90% or more (almost completely withered)) | 4 (Herbicidal ratio of 70% or higher and lower than 90%) | 5 (Herbicidal ratio of 90% or more (almost completely withered)) | 5 (Herbicidal ratio of 90% or more (almost completely withered)) | 5 (Herbicidal ratio of 90% or more (almost completely withered)) | 5 (Herbicidal ratio of 90% or more (almost completely withered)) | 5 (Herbicidal ratio of 90% or more (almost completely withered)) | 5 (Herbicidal ratio of 90% or more (almost completely withered)) | 4 (Herbicidal ratio of 70% or higher and lower than 90%) | 5 (Herbicidal ratio of 90% or more (almost completely withered)) | 5 (Herbicidal ratio of 90% or more (almost completely withered)) | 5 (Herbicidal ratio of 90% or more (almost completely withered)) | f (beet) effect on crop grade (beet [7]): 0 (Herbicidal ratio of 5% or lower (almost no effect))
CON=C(C)CC1CC(OC(=O)COc2ccc(Cl)cc2Cl)=C(c2c(C)cc(C)cc2C)C1=O (stereo not shown) [1-075] | 5 (Herbicidal ratio of 90% or more (almost completely withered)) | – | 5 (Herbicidal ratio of 90% or more (almost completely withered)) | – | – | 4 (Herbicidal ratio of 70% or higher and lower than 90%) | – | 5 (Herbicidal ratio of 90% or more (almost completely withered)) | – | 5 (Herbicidal ratio of 90% or more (almost completely withered)) | 5 (Herbicidal ratio of 90% or more (almost completely withered)) | – | 5 (Herbicidal ratio of 90% or more (almost completely withered)) | 5 (Herbicidal ratio of 90% or more (almost completely withered)) | 5 (Herbicidal ratio of 90% or more (almost completely withered)) | 5 (Herbicidal ratio of 90% or more (almost completely withered)) | R: Veronica persica, herbicidal effect (criteria 0-5) (Veronica persica): 0 (Herbicidal ratio of 5% or lower (almost no effect)); Q: Galium spurium, herbicidal effect (criteria 0-5) (Galium spurium): 0 (Herbicidal ratio of 5% or lower (almost no effect)); J: Alopecurus myosuroides, herbicidal effect (criteria 0-5) (Alopecurus myosuroides): 5 (Herbicidal ratio of 90% or more (almost completely withered)); L: Apera spica-venti, herbicidal effect (criteria 0-5) (Apera spica-venti): 5 (Herbicidal ratio of 90% or more (almost completely withered)); F: Digitaria ciliaris, herbicidal effect (criteria 0-5) (Digitaria ciliaris [3]): 5 (Herbicidal ratio of 90% or more (almost completely withered)); G: Setaria viridis, herbicidal effect (criteria 0-5) (Setaria viridis): 5 (Herbicidal ratio of 90% or more (almost completely withered))
